Experiments:
[1] = system: human CECs; assay: F-actin polymerization assay; assay type: cell-based; settings: CCL11 10 ng/ml, CCL24 100 ng/ml, CCL26 2 μg/ml; versus PBS
Experimental: F-actin Polymerization Assay. Human CECs were seeded in black-walled 96-well plates and grown to 70-80% confluence in fully supplemented EGM-2MV. Cultures were serum starved overnight in basal media and then stimulated with recombinant human eotaxin-1 (10 ng/ml), eotaxin-2 (100 ng/ml), eotaxin-3 (2 μg/ml) (Peprotech), or vehicle control (PBS). At 0, 10, 30, 60, or 120 sec time-points, cells were fixed in 3.7% paraformaldehyde for 10 min, washed, permeabilized in PBS with 0.1% Triton-X, and then stained with rhodamine labelled Phalloidin (1:200, Invitrogen) per manufacturer's recommendations. Plates were analyzed on a fluorescent plate reader (Synergy 4, Biotek) followed by fluorescent microscopy (Nikon E800).

[2] = system: human CECs; assay: Proliferation assay (BrdU ELISA); assay type: cell-based; settings: 24 h stimulation; CCL11 10 ng/ml, CCL24 100 ng/ml, CCL26 2 μg/ml; versus BSA
Experimental: Proliferation assay. Human CECs were synchronized for cell cycle state by first cultivating them in EGM2-MV media (Lonza) supplemented with 10% FBS (Gibco) to achieve complete confluence and then by overnight serum starvation in MCDB131 media (Gibco) with 0.1% FBS. They were passaged to 96-well plates at a density of 5,000 cells per well, followed by stimulation for 24 h with eotaxin-1, 2 or 3 (10 ng, 100 ng and 2 μg per ml, respectively; Peprotech) in MCDB131 media with 0.1% FBS. After 24 h, cell viability was measured with BrdU ELISA (Chemicon) according to manufacturer's instructions.

[3] = system: Rac-1; assay: Rac-1 activation pull-down assay; assay type: cell-based; settings: human CECs; CCL11 10 ng/ml, CCL24 100 ng/ml, CCL26 2 μg/ml; versus unstimulated (0 s) cells
Experimental: Rac-1 activation. Human CECs were cultured in EGM-2 MV containing 5% FBS. Prior to starting the assay, cells were serum starved with basal medium (MCDB131) supplemented with 1% FBS overnight. Cells were stimulated for designated times with Eotaxin-1, 2 and 3 (10 ng/ml, 100 ng/ml and 2 μg/ml respectively). Equal amounts of lysates (500 μg) were incubated with GST-Pak1-PBD agarose beads (Upstate) to pull-down active GTP-bound Rac-1 at 4° C. for 1 h with rotation. The samples were subsequently analyzed for bound Rac-1 by western blot analysis using an anti-Rac-1 antibody (Upstate).

[4] = system: laser-induced CNV; assay: Laser-induced CNV in Ccr3−/− mice (specificity of CCR3 blockade); assay type: in vivo, mouse; settings: n=5, P>0.1
Experimental: (§1) Mouse model of CNV. Laser photocoagulation (OcuLight GL, Iridex Corporation) was performed on mouse eyes to induce CNV, and CNV volumes were measured 7 days after injury by scanning laser confocal microscope (TCS SP, Leica) as previously described (Kleinman, et al., Nature. 452, 591-597 (2008)). Drug injections. Rat IgG2a neutralizing antibody against mouse CCR3 (R&D Systems), control rat IgG2a (Serotec), goat neutralizing antibody against mouse CCL11 (R&D Systems), goat neutralizing antibody against mouse CCL24 (R&D Systems), control goat IgG (Jackson Immunoresearch), or (S)-Methyl-2-naphthoylamino-3-(4-nitrophenyl)propionate (SB328437; Calbiochem) dissolved in DMSO were injected into the vitreous humor using a 33-gauge double-calibre needle (Ito Corporation) once, immediately after laser injury as previously described (Kleinman, et al., (2008) supra).
Animals. All animal experiments were in accordance with the guidelines of the University of Kentucky IACUC and the Association for Research in Vision and Ophthalmology. C57BL/6J and Kit^W-v/Kit^W-v mice were purchased from The Jackson Laboratory. […]

[5] = system: laser-induced CNV; assay: Laser-induced CNV in wild-type mice; assay type: in vivo, mouse; settings: single intraocular administration after laser injury, versus isotype IgG or vehicle
Experimental: as §1
Drug injections. […]

[6] = system: retina; assay: Retinal toxicity by fundus imaging and electroretinography; assay type: in vivo; settings: wild-type mice, fundus imaging and electrophysiological function; anti-VEGF-A: repeated intravitreous administration
Experimental: Electroretinography. Mice were dark adapted overnight and then anesthetized. Both eyes were positioned within a ColorBurst Ganzfeld stimulator (Diagnosys). Espion software (Diagnosys) was used to program a fully automated flash intensity series from which retinal responses were recorded.

[7] = system: CCR3; assay: CCR3 bioimaging: fundus angiography after intravenous injection; assay type: in vivo, mouse; settings: wild-type and Ccl2−/−×Ccr2−/− mice
Experimental: CCR3 bioimaging. F(ab) fragments were created from monoclonal IgG2a antibody raised against the extracellular domain of murine CCR3 (R&D Systems) and an isotype rat IgG2a (R&D Systems) using a commercially available papain-based kit (Pierce). Recovered fragments were conjugated with quantum dots (Invitrogen, QDot-800) and resuspended in sterile PBS. Ccl2^−/−×Ccr2^−/− mice were administered 100 μg of tagged CCR3 F(ab) or isotype F(ab) via tail vein injection after acquiring baseline fluorescent imaging using a Topcon retinal camera (TRC-50IX). Serial images were then acquired at 1, 4, and 12 h after which eyes were harvested and frozen in OCT for immunofluorescent analyses. Retinal images were analyzed (ImageNet, Topcon) by comparison to baseline and fluorescein angiographic data. Hyperfluorescent areas were then cropped, equally thresholded, and pseudocolored (Photoshop CS3, Adobe). Sections from QDot-conjugated CCR3 or rat IgG2a isotype F(ab) injected animals were fixed in 4% paraformaldehyde and blocked with 5% normal donkey serum/5% goat serum in PBS, stained with rat anti-mouse CD31 (BD Biosciences) and either rabbit anti-mouse CCR3 (Santa Cruz) or rabbit anti-Ki67 (Abcam) followed by appropriate fluorescent secondary antibodies (Alexa Fluor 488/594, Invitrogen), and evaluated by confocal laser scanning microscopy (Leica SP-5).

With “CCL26: CCR3 ligand eotaxin-3, recombinant human (Peprotech)” the “actin polymerization in human CECs” value [1] was “induced actin polymerization”, the “human CEC proliferation” value [2] was “induced human CEC proliferation” and the “active (GTP-bound) Rac-1 GTPase levels” value [3] was “increased levels of activate Rac-1 GTPase”.

For “(S)-Methyl-2-naphthoylamino-3-(4-nitrophenyl)propionate [SB328437]”, the “CNV in Ccr3−/− mice” value [4] was 109±16 % of control, the “laser-induced CNV (effect in words)” value [5] was “reduced” and the “laser-induced CNV (effect in words)” value ([5]; listed as (S)-Methyl-2-naphthoylamino-3-(4-nitrophenyl)propionate) was “suppressed laser injury-induced CNV in wild-type mice in a dose-dependent fashion”. For the same molecule, the retinal toxicity [6] was “neither CCR3 Ab nor CCR3 receptor antagonist induced retinal toxicity”.

`O=C([O-])c1ccccc1-c1c2ccc(=O)cc-2oc2cc([O-])ccc12.[Na+].[Na+]` [sodium fluorescein] was tested, and the “hyperfluorescence indicative of CNV on fluorescein angiography” value [7] was “no areas of hyperfluorescence indicative of CNV”.

In the case of “CCL11: CCR3 ligand eotaxin-1, recombinant human (Peprotech)”, the “actin polymerization in human CECs” value [1] is reported as “induced actin polymerization”, the “human CEC proliferation” value [2] is reported as “induced human CEC proliferation” and the “active (GTP-bound) Rac-1 GTPase levels” value [3] is reported as “increased levels of activate Rac-1 GTPase”.

B1: CCL24: CCR3 ligand eotaxin-2, recombinant human (Peprotech) (protein, UniProt O00175 27-119, looked up)
C-C motif chemokine 24: VVIPSPCCMFFVSKRIPENRVVSYQLSSRSTCLKAGVIFTTKKGQQFCGDPKQEWVQRYMKNLDAKQKKASPRARAVAVKGPVQRYPGNQTTC
With B1 the “actin polymerization in human CECs” value [1] was “induced actin polymerization”, the “human CEC proliferation” value [2] was “induced human CEC proliferation” and the “active (GTP-bound) Rac-1 GTPase levels” value [3] was “increased levels of activate Rac-1 GTPase”.

Reference: patent publication US8778616B2, “Method of using CCR3 binding agents to detect choroidal neovascularization” (University of Kentucky Research Foundation, priority 2009, dated 2014)
